Legend:
[1] = system: human peripheral blood lymphocytes (PBMCs); test: hPBMC assay: IFN-γ and IFN-α production by human PBMCs (ELISA); type: cell-based
[2] = system: plasmacytoind dendritic cells (PDCs) of human PBMCs; test: Intracellular staining and FACS analysis of IFN-α production from PDCs; type: cell-based; details: double-staining cells as percentage of total PBMCs, 20 μg/mL oligonucleotide, 100 μg/mL PMXB, six hours
Procedure: Intracellular staining assays and FACS analysis were used to examine IFN-α production from the plasmacytoind dendritic cells (PDCs) of human PBMCs. […] For these assays, the IMC or -ISS and the polymyxin were added separately to the PBMC cell culture which contained human serum albumin. […] After the six hours, the cells were stained with a fluorescently labeled PDC marker, anti-BCDA-2 labeled with FITC, and with anti-IFN-α labeled with PE. FACS analysis of the labeled cells was performed.

[3] = hydrophobic/lipophilic balance value; cited from earlier work
[4] = Donor 28232, no Time given, 20 μg/ml oligonucleotide, 100 μg/ml polymyxin
[5] = Donor 28233, no Time given, 20 μg/ml oligonucleotide, 100 μg/ml polymyxin
[6] = Mean (Table 6), no Time given, 20 μg/ml oligonucleotide, 100 μg/ml polymyxin
[7] = Table 3, Donor 1, PMXB 100 μg/ml, AMTB 10 μg/ml, serum containing medium
[8] = Table 3, Donor 2, PMXB 100 μg/ml, AMTB 10 μg/ml, serum containing medium
[9] = Table 3, Mean, PMXB 100 μg/ml, AMTB 10 μg/ml, serum containing medium

Molecule: colistin methanesulfonate [CMS]
- IFN-γ/α-enhancing activity in comparison to PMXB or CLN ([1]; in words, Table 10 experiment): substantially reduced

Molecule: 5′-TGCTTGCAAGCTTGCAAGCA-3′ (listed as DNA, chemistry not given here) [−ISS SEQ ID NO: 38, reference compound]
- BCDA-2/IFN-α d.p. % ([2]; donor 1): 0.00%
- BCDA-2/IFN-α d.p. % ([2]; donor 2): 0.00%
- BCDA-2/IFN-α d.p. % ([2]; mean): 0.00%

Molecule: 5′-TCGTCGAACGTTCGAGATGAT-3′ [SEQ ID NO: 39]
- BCDA-2/IFN-α d.p. % ([2]; donor 1): 0.08%
- BCDA-2/IFN-α d.p. % ([2]; donor 2): 0.14%
- BCDA-2/IFN-α d.p. % ([2]; mean): 0.11%

Molecule: polyoxyethylene(20) sorbitan trioleate [Tween 85]
- IFN-Υ [1, 4]: 15 pg/mL
- IFN-α [1, 4]: 66 pg/mL
- IFN-Υ [1, 5]: 6 pg/mL
- IFN-α [1, 5]: 55 pg/mL
- IFN-Υ [1, 6]: 11 pg/mL
- IFN-α [1, 6]: 60 pg/mL
- HLB [3]: 11

Molecule: C[C@@H]1[C@H](O)[C@@H](C)/C=C/C=C/C=C/C=C/C=C/C=C/C=C/[C@H](O[C@@H]2O[C@H](C)[C@@H](O)[C@H](N)[C@@H]2O)C[C@@H]2O[C@](O)(C[C@@H](O)C[C@@H](O)[C@H](O)CC[C@@H](O)C[C@@H](O)CC(=O)O[C@H]1C)C[C@H](O)[C@H]2C(=O)O [AMTB, amphotericin B]
- IFN-α [1, 7]: 0 pg/mL
- IFN-γ [1, 7]: 0 pg/mL
- IFN-α [1, 8]: 0 pg/mL
- IFN-γ [1, 8]: 0 pg/mL
- IFN-α [1, 9]: 0 pg/mL
- IFN-γ [1, 9]: 0 pg/mL
- immunomodulatory activity in the hPBMC assay ([1]; result in words): no activity on its own

Source: US7884083B2, “Immunomodulatory compositions, methods of making, and methods of use thereof” (Dynavax Technologies Corporation, priority 2002, dated 2011)
